pIC50: −log10 of the molar value.
How the values were obtained:
PAK4 [1] = biological target: T1, PAK4 (Homo sapiens, UniProt O96013); parameters: method as in earlier work; conditions: Table S1; cited from earlier work
T1 construct: DNA tag (qPCR read-out); purchased Ambit Biosciences (KINOMEscan service)

CAMK2D = biological target: T2, CAMK2D (Homo sapiens, UniProt Q13557); experiment: KINOMEscan panel screen; type: binding; conditions: read-out: Percent Control(%)
T2 construct: purchased DiscoveRx KINOMEscan (Ambit Biosciences)

MET(Y1235D) = biological target: T3, MET(Y1235D) (Homo sapiens, UniProt P08581, Y1235D); experiment: KINOMEscan panel screen; type: binding; conditions: read-out: Percent Control(%)
T3 construct: purchased DiscoveRx KINOMEscan (Ambit Biosciences)
T3 sequence (P08581 1078-1345 Y1235D limits assumed): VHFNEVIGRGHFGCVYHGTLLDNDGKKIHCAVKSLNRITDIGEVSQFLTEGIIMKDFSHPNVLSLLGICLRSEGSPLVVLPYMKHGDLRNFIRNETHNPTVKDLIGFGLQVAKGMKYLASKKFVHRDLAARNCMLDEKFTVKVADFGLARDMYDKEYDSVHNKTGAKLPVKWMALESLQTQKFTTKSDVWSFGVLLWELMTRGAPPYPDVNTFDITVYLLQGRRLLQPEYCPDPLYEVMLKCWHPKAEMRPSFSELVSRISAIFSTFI

TEC = biological target: T4, TEC (Homo sapiens, UniProt P42680); experiment: KINOMEscan panel screen; type: binding; conditions: read-out: Percent Control(%)
T4 construct: purchased DiscoveRx KINOMEscan (Ambit Biosciences)

MRCKA = biological target: T5, MRCKA (Homo sapiens, UniProt Q5VT25); experiment: KINOMEscan panel screen; type: binding; conditions: read-out: Percent Control(%)
T5 construct: purchased DiscoveRx KINOMEscan (Ambit Biosciences)
T5 sequence (Q5VT25 whole entry): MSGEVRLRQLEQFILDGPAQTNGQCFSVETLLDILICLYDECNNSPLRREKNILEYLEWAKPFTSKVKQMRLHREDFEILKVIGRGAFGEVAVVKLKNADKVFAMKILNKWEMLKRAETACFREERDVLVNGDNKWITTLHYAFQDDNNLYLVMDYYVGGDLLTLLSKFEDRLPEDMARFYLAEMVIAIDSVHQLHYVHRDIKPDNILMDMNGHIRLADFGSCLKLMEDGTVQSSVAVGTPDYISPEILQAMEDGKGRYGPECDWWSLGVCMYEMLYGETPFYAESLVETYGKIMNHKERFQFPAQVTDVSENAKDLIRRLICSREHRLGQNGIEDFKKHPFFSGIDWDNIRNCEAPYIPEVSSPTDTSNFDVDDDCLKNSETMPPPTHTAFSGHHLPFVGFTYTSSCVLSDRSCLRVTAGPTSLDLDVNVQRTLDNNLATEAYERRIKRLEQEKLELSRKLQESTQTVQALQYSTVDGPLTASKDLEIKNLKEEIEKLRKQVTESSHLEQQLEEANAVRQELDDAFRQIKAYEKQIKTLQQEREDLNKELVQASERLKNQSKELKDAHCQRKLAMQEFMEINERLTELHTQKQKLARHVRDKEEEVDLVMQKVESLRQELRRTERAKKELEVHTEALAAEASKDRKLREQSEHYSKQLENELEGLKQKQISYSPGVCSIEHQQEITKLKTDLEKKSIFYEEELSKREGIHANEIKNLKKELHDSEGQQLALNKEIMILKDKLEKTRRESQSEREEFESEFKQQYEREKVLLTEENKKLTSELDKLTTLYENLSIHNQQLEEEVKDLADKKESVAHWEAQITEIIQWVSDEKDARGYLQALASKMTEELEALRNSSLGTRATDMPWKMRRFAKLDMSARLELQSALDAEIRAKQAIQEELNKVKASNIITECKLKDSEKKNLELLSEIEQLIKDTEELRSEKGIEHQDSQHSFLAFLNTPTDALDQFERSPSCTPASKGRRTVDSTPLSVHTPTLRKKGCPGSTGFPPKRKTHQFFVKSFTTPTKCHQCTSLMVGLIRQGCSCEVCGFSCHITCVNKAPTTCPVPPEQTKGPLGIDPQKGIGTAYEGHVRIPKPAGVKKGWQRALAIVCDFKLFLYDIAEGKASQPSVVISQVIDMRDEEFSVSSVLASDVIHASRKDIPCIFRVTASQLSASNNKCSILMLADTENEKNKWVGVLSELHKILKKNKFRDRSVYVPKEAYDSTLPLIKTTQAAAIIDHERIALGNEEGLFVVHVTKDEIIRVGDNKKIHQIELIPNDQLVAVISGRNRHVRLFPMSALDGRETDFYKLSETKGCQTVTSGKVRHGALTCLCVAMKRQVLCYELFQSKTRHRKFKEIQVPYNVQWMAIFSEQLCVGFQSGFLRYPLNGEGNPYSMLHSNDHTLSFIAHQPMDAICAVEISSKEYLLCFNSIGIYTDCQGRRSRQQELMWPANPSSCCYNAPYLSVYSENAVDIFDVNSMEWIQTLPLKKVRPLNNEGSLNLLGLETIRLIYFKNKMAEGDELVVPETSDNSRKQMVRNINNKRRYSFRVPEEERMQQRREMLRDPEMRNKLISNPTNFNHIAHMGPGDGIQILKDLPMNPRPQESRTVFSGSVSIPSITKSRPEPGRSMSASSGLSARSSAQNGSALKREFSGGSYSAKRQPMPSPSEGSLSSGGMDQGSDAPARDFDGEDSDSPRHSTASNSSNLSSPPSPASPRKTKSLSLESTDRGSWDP

MARK4 = biological target: T6, MARK4 (Homo sapiens, UniProt Q96L34); experiment: KINOMEscan panel screen; type: binding; conditions: read-out: Percent Control(%)
T6 construct: purchased DiscoveRx KINOMEscan (Ambit Biosciences)

KIT(V559D) = biological target: T7, KIT(V559D) (Homo sapiens, UniProt P10721, V559D); experiment: KINOMEscan panel screen; type: binding; conditions: read-out: Percent Control(%)
T7 construct: purchased DiscoveRx KINOMEscan (Ambit Biosciences)

PFCDPK1(P.falciparum) = biological target: T8, PFCDPK1(P.falciparum) (Plasmodium falciparum, UniProt P62344); experiment: KINOMEscan panel screen; type: binding; conditions: read-out: Percent Control(%)
T8 construct: purchased DiscoveRx KINOMEscan (Ambit Biosciences)

ABL1-phosphorylated = biological target: T9, ABL1-phosphorylated (Homo sapiens, UniProt P00519); experiment: KINOMEscan panel screen; type: binding; conditions: read-out: Percent Control(%)
T9 construct: purchased DiscoveRx KINOMEscan (Ambit Biosciences)

PRKCE = biological target: T10, PRKCE (Homo sapiens, UniProt Q02156); experiment: KINOMEscan panel screen; type: binding; conditions: read-out: Percent Control(%)
T10 construct: purchased DiscoveRx KINOMEscan (Ambit Biosciences)

CSNK1A1L = biological target: T11, CSNK1A1L (Homo sapiens, UniProt Q8N752); experiment: KINOMEscan panel screen; type: binding; conditions: read-out: Percent Control(%)
T11 construct: purchased DiscoveRx KINOMEscan (Ambit Biosciences)

SGK3 = biological target: T12, SGK3 (Homo sapiens, UniProt Q96BR1); experiment: KINOMEscan panel screen; type: binding; conditions: read-out: Percent Control(%)
T12 construct: purchased DiscoveRx KINOMEscan (Ambit Biosciences)

ACVR1 = biological target: T13, ACVR1 (Homo sapiens, UniProt Q04771); experiment: KINOMEscan panel screen; type: binding; conditions: read-out: Percent Control(%)
T13 construct: purchased DiscoveRx KINOMEscan (Ambit Biosciences)

CTK = biological target: T14, CTK (Homo sapiens, UniProt P42679); experiment: KINOMEscan panel screen; type: binding; conditions: read-out: Percent Control(%)
T14 construct: purchased DiscoveRx KINOMEscan (Ambit Biosciences)

[2] = biological target: T15, RSK1(Kin.Dom.2-C-terminal) (Homo sapiens, UniProt Q15418); experiment: KINOMEscan panel screen; type: binding; conditions: read-out: Percent Control(%)
T15 construct: RSK1(Kin.Dom.2-C-terminal); purchased DiscoveRx KINOMEscan (Ambit Biosciences)

BIKE = biological target: T16, BIKE (Homo sapiens, UniProt Q9NSY1); experiment: KINOMEscan panel screen; type: binding; conditions: read-out: Percent Control(%)
T16 construct: purchased DiscoveRx KINOMEscan (Ambit Biosciences)

NEK9 = biological target: T17, NEK9 (Homo sapiens, UniProt Q8TD19); experiment: KINOMEscan panel screen; type: binding; conditions: read-out: Percent Control(%)
T17 construct: purchased DiscoveRx KINOMEscan (Ambit Biosciences)

MEK4 = biological target: T18, MEK4 (Homo sapiens, UniProt P45985); experiment: KINOMEscan panel screen; type: binding; conditions: read-out: Percent Control(%)
T18 construct: purchased DiscoveRx KINOMEscan (Ambit Biosciences)

NEK2 = biological target: T19, NEK2 (Homo sapiens, UniProt P51955); experiment: KINOMEscan panel screen; type: binding; conditions: read-out: Percent Control(%)
T19 construct: purchased DiscoveRx KINOMEscan (Ambit Biosciences)

DYRK2 = biological target: T20, DYRK2 (Homo sapiens, UniProt Q92630); experiment: KINOMEscan panel screen; type: binding; conditions: read-out: Percent Control(%)
T20 construct: purchased DiscoveRx KINOMEscan (Ambit Biosciences)

MST1 = biological target: T21, MST1 (Homo sapiens, UniProt Q13043); experiment: KINOMEscan panel screen; type: binding; conditions: read-out: Percent Control(%)
T21 construct: purchased DiscoveRx KINOMEscan (Ambit Biosciences)

NLK = biological target: T22, NLK (Homo sapiens, UniProt Q9UBE8); experiment: KINOMEscan panel screen; type: binding; conditions: read-out: Percent Control(%)
T22 construct: purchased DiscoveRx KINOMEscan (Ambit Biosciences)
T22 sequence (Q9UBE8 whole entry): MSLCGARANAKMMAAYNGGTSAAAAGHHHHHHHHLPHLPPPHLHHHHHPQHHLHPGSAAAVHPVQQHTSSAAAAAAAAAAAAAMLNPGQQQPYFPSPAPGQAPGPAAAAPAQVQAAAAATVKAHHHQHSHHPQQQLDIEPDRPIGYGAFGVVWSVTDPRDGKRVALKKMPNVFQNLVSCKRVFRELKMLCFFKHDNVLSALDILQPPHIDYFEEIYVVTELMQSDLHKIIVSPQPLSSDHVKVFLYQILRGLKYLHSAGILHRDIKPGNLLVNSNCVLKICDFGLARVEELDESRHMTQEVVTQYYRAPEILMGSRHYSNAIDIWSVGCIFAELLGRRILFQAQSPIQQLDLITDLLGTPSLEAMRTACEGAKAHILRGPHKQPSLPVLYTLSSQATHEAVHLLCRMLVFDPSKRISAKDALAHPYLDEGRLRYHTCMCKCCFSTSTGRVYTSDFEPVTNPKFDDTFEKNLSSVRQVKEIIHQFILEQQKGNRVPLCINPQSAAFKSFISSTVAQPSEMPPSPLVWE

LRRK2 = biological target: T23, LRRK2 (Homo sapiens, UniProt Q5S007); experiment: KINOMEscan panel screen; type: binding; conditions: read-out: Percent Control(%)
T23 construct: purchased DiscoveRx KINOMEscan (Ambit Biosciences)

MST1R = biological target: T24, MST1R (Homo sapiens, UniProt Q04912); experiment: KINOMEscan panel screen; type: binding; conditions: read-out: Percent Control(%)
T24 construct: purchased DiscoveRx KINOMEscan (Ambit Biosciences)

ADCK3 = biological target: T25, ADCK3 (Homo sapiens, UniProt Q8NI60); experiment: KINOMEscan panel screen; type: binding; conditions: read-out: Percent Control(%)
T25 construct: purchased DiscoveRx KINOMEscan (Ambit Biosciences)

HIPK4 = biological target: T26, HIPK4 (Homo sapiens, UniProt Q8NE63); experiment: KINOMEscan panel screen; type: binding; conditions: read-out: Percent Control(%)
T26 construct: purchased DiscoveRx KINOMEscan (Ambit Biosciences)
T26 sequence (Q8NE63 whole entry): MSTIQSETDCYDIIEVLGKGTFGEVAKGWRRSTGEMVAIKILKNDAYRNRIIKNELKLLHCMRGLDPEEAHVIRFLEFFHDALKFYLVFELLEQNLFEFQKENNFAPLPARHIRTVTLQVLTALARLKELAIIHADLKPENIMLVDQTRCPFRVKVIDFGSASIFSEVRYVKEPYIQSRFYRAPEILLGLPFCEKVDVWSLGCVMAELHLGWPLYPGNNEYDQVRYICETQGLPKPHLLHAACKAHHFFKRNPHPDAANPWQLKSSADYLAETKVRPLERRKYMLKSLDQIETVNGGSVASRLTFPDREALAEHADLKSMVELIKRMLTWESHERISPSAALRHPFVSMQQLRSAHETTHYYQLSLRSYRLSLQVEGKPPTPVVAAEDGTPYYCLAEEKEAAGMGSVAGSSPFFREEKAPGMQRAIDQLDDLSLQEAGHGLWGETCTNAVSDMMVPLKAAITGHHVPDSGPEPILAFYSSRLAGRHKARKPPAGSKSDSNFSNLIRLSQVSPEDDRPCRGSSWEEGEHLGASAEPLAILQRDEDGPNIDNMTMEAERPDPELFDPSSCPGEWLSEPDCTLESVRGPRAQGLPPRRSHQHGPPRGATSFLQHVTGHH

BRSK1 = biological target: T27, BRSK1 (Homo sapiens, UniProt Q8TDC3); experiment: KINOMEscan panel screen; type: binding; conditions: read-out: Percent Control(%)
T27 construct: purchased DiscoveRx KINOMEscan (Ambit Biosciences)

PAK4 [3] = biological target: T1, PAK4; experiment: KINOMEscan panel screen; type: binding; conditions: read-out: Percent Control(%)
CDC2L2 = biological target: T28, CDC2L2 (Homo sapiens, UniProt Q9UQ88); experiment: KINOMEscan panel screen; type: binding; conditions: read-out: Percent Control(%)
T28 construct: purchased DiscoveRx KINOMEscan (Ambit Biosciences)

TLK1 = biological target: T29, TLK1 (Homo sapiens, UniProt Q9UKI8); experiment: KINOMEscan panel screen; type: binding; conditions: read-out: Percent Control(%)
T29 construct: purchased DiscoveRx KINOMEscan (Ambit Biosciences)

FGR = biological target: T30, FGR (Homo sapiens, UniProt P09769); experiment: KINOMEscan panel screen; type: binding; conditions: read-out: Percent Control(%)
T30 construct: purchased DiscoveRx KINOMEscan (Ambit Biosciences)

CAMK1 = biological target: T31, CAMK1 (Homo sapiens, UniProt Q14012); experiment: KINOMEscan panel screen; type: binding; conditions: read-out: Percent Control(%)
T31 construct: purchased DiscoveRx KINOMEscan (Ambit Biosciences)

NEK10 = biological target: T32, NEK10 (Homo sapiens, UniProt Q6ZWH5); experiment: KINOMEscan panel screen; type: binding; conditions: read-out: Percent Control(%)
T32 construct: purchased DiscoveRx KINOMEscan (Ambit Biosciences)
T32 sequence (Q6ZWH5 whole entry): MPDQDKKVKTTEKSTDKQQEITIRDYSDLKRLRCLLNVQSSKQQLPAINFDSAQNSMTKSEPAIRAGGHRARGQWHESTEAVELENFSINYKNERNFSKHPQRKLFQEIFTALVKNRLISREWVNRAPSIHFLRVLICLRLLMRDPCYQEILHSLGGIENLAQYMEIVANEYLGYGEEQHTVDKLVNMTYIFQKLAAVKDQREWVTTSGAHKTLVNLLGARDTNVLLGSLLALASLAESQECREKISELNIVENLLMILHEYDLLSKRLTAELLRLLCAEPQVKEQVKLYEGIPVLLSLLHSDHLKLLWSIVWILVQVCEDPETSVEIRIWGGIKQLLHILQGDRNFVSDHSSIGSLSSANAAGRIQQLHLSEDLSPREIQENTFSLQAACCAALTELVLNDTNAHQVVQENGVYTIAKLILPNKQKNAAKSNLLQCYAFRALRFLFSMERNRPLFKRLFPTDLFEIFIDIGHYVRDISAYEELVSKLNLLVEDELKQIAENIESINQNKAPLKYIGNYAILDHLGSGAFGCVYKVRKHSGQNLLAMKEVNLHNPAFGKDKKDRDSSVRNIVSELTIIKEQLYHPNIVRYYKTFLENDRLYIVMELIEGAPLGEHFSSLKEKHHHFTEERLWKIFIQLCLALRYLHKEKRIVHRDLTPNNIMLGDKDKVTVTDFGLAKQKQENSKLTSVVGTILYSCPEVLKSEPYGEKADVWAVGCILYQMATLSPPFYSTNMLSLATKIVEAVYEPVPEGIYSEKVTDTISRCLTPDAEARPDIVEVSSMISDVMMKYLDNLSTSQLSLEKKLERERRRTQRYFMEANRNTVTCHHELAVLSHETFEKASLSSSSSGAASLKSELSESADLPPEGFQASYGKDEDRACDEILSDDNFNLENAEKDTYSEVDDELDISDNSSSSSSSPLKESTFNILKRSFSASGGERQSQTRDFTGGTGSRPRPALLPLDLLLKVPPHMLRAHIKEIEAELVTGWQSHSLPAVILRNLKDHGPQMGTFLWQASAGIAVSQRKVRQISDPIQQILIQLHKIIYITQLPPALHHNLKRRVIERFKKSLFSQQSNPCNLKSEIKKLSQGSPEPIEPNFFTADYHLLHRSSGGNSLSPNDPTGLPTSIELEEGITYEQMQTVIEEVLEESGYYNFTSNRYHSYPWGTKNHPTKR

PIK3CA(I800L) = biological target: T33, PIK3CA(I800L) (Homo sapiens, UniProt P42336, I800L); experiment: KINOMEscan panel screen; type: binding; conditions: read-out: Percent Control(%)
T33 construct: purchased DiscoveRx KINOMEscan (Ambit Biosciences)

FLT3(R834Q) = biological target: T34, FLT3(R834Q) (Homo sapiens, UniProt P36888, R834Q); experiment: KINOMEscan panel screen; type: binding; conditions: read-out: Percent Control(%)
T34 construct: purchased DiscoveRx KINOMEscan (Ambit Biosciences)

MAPKAPK2 = biological target: T35, MAPKAPK2 (Homo sapiens, UniProt P49137); experiment: KINOMEscan panel screen; type: binding; conditions: read-out: Percent Control(%)
T35 construct: purchased DiscoveRx KINOMEscan (Ambit Biosciences)

[4] = biological target: T36, RSK4(Kin.Dom.1-N-terminal) (Homo sapiens, UniProt Q9UK32); experiment: KINOMEscan panel screen; type: binding; conditions: read-out: Percent Control(%)
T36 construct: RSK4(Kin.Dom.1-N-terminal); purchased DiscoveRx KINOMEscan (Ambit Biosciences)

FRK = biological target: T37, FRK (Homo sapiens, UniProt P42685); experiment: KINOMEscan panel screen; type: binding; conditions: read-out: Percent Control(%)
T37 construct: purchased DiscoveRx KINOMEscan (Ambit Biosciences)

MKK7 = biological target: T38, MKK7 (Homo sapiens, UniProt O14733); experiment: KINOMEscan panel screen; type: binding; conditions: read-out: Percent Control(%)
T38 construct: purchased DiscoveRx KINOMEscan (Ambit Biosciences)

ACVR2B = biological target: T39, ACVR2B (Homo sapiens, UniProt Q13705); experiment: KINOMEscan panel screen; type: binding; conditions: read-out: Percent Control(%)
T39 construct: purchased DiscoveRx KINOMEscan (Ambit Biosciences)

T1 sequence (O96013 whole entry): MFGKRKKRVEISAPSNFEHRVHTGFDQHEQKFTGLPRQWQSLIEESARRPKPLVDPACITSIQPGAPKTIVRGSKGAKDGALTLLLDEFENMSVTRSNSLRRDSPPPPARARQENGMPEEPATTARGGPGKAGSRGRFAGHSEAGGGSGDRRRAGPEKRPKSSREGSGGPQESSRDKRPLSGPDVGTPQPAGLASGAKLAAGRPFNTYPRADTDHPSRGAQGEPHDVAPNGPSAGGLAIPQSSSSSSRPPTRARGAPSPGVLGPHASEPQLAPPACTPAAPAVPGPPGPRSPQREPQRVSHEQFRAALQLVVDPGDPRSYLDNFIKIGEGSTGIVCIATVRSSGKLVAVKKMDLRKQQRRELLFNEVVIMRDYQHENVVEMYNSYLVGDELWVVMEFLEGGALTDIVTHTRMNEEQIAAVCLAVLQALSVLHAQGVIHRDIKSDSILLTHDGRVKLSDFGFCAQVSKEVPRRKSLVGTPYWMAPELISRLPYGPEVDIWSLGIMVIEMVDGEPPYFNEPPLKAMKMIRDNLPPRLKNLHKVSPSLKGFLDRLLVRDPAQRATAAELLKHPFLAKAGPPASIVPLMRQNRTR

O=C(Nc1ccc(Oc2ncnc3[nH]ncc23)cc1)Nc1ccc(Cl)c(C(F)(F)F)c1 [Compound 1, 1-(4-(1H-pyrazolo[3,4-d]pyrimidin-4-yloxy)phenyl)-3-(4-chloro-3-(trifluoromethyl)phenyl)urea]
pIC50 (PAK4 [1]): < 5.00

CC(C)(C)c1cc(NC(=O)Nc2ccc(Oc3ncnc4[nH]ncc34)c(F)c2)no1 [SKLB-677, 1-(4-(1H-pyrazolo[3,4-d]pyrimidin-4-yloxy)-3-fluorophenyl)-3-(5-tert-butylisoxazol-3-yl)urea]
remaining binding at 10 µM (CAMK2D): 100%
remaining binding at 10 µM (MET(Y1235D)): 5.4%
remaining binding at 10 µM (TEC): 100%
remaining binding at 10 µM (MRCKA): 100%
remaining binding at 10 µM (MARK4): 70%
remaining binding at 10 µM (KIT(V559D)): 0%
remaining binding at 10 µM (PFCDPK1(P.falciparum)): 26%
remaining binding at 10 µM (ABL1-phosphorylated): 3.2%
remaining binding at 10 µM (PRKCE): 90%
remaining binding at 10 µM (CSNK1A1L): 68%
remaining binding at 10 µM (SGK3): 46%
remaining binding at 10 µM (ACVR1): 95%
remaining binding at 10 µM (CTK): 37%
remaining binding at 10 µM [2]: 94%
remaining binding at 10 µM (BIKE): 89%
remaining binding at 10 µM (NEK9): 54%
remaining binding at 10 µM (MEK4): 39%
remaining binding at 10 µM (NEK2): 100%
remaining binding at 10 µM (DYRK2): 34%
remaining binding at 10 µM (MST1): 28%
remaining binding at 10 µM (NLK): 1.2%
remaining binding at 10 µM (LRRK2): 52%
remaining binding at 10 µM (MST1R): 42%
remaining binding at 10 µM (ADCK3): 100%
remaining binding at 10 µM (HIPK4): 0.45%
remaining binding at 10 µM (BRSK1): 85%
remaining binding at 10 µM (PAK4 [3]): 100%
remaining binding at 10 µM (CDC2L2): 53%
remaining binding at 10 µM (TLK1): 75%
remaining binding at 10 µM (FGR): 9.4%
remaining binding at 10 µM (CAMK1): 21%
remaining binding at 10 µM (NEK10): 93%
remaining binding at 10 µM (PIK3CA(I800L)): 87%
remaining binding at 10 µM (FLT3(R834Q)): 2.8%
remaining binding at 10 µM (MAPKAPK2): 100%
remaining binding at 10 µM [4]: 64%
remaining binding at 10 µM (FRK): 0%
remaining binding at 10 µM (MKK7): 77%
remaining binding at 10 µM (ACVR2B): 81%
